Consider 8 compounds from patent EP4678638A1, “NEW E3 UBIQUITIN LIGASE LIGAND, PROTEIN DEGRADATION AGENT AND USE THEREOF” (priority 2023, dated 2024).

One assay relates to BXPC-3. Kind of assay: CCK-8 proliferation, BXPC-3. The following applies: Homo sapiens, 96 hours, read-out: Inhibitory activity (IC50) on tumor cell proliferation, BXPC-3. It counts as cell-based. Here is the method: (§1) The tumor cells used herein were cultured in a cell culture medium listed in table A1 at 37°C in an incubator with 5% CO2. Prior to experimentation, all cell lines used were correctly identified by STR profiling, and tested negative for mycoplasma contamination using a mycoplasma detection kit through routine screenings. Table A1. Tumor cells and cell culture medium used in the present disclosure
(§2) IC50 values of the compounds of the present disclosure (including the compounds in Table 1, and compounds of examples) were measured using the Meilun Cell Counting Kit-8 kit from Dalian Meilun Biotech Co., Ltd. Assay details are as follows: tumor cells were seeded in a 96-well plate at a density listed in Table A2. After 24h, 100 µL of the inoculated cells were treated with 0.5µL of the compounds of the present disclosure (including the compounds in Tables 1 and 2, and compounds of examples) at 10 different successively decreasing concentrations (starting at the highest concentration of 10µM; 5-fold serial dilutions). After the cells were treated with the compounds of the present disclosure for a period of time, the cell viability detection reagent was added to the culture medium for cell viability assessment according to the instructions provided with the CCK-8 kit. […] The growth inhibition of the compounds of the present disclosure on cells was plotted by Prism Graphpad software, and the IC50 values of the compounds of the present disclosure were calculated therefrom. […] Seeding protocol and treatment time for tumor cells

The subject of the next assay is MGC-803. Briefly: CCK-8 proliferation, MGC-803 (heads: MGC80-3, MGC803). Type of assay: cell-based, Human. The following applies: Homo sapiens, MGC-803. The procedure: as §1, §2
The next assay has as its system SW620. Kind of assay: CCK-8 proliferation, SW620. The note with it: Homo sapiens, SW-620; CCK-8; 96 hours; read-out: Inhibitory activity (IC50) on tumor cell proliferation, SW620. Type of assay: cell-based. Summed up:
(§3)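 Tumor cells were cultured at 37°C with 5% CO2, seeded, and after 24h treated with compounds at 10 concentrations starting at 10µM (5-fold serial dilutions).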

The test system of another assay is THP-1. Briefly: CCK-8 proliferation, THP-1. Type of assay: cell-based. The following applies: Homo sapiens, 72 hours, read-out: Inhibitory activity (IC50) on tumor cell proliferation, THP-1. Here is the method: as §1, §2
In the next assay the test system is CAL-62. Briefly: CCK-8 proliferation, CAL-62. Type of assay: cell-based. The following applies: Homo sapiens, 72 hours, read-out: Inhibitory activity (IC50) on tumor cell proliferation, CAL-62. Here is the method:
as §1, §2

Assay [1] deals with T1, human Cereblon WT GST-tagged protein (Homo sapiens, UniProt Q96SW2).
T1 construct: purchased CISBIO 64BDCRBNPEH
Briefly: CRBN binding, HTRF (CEREBLON BINDING kit). The note with it: HTRF. A digest of the protocol: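 Competitive HTRF: GST-tagged human WT Cereblon mixed with compound, Thalidomide-Re tracer and GST Eu antibody, incubated 3 h at room temperature. Signals read at 620 and 665 nm.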
Background: TR-FRET usually uses a lanthanide donor and a delayed reading to cut background.

Another assay has as its system CCRF-CEM. Kind of assay: CCK-8 proliferation, CCRF-CEM. It counts as cell-based, Human. The following applies: Homo sapiens. Summed up:
as §3

The target in another assay is T2, FAK (Homo sapiens, UniProt Q05397).
T2 construct: evaluate the effects of the compounds of the present disclosure on the expression of target proteins in cells; endogenous in cells
Briefly: Western blot degradation of FAK. It counts as cell-based. The following applies: Table D7. A digest of the protocol:
(§4)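 After compound exposure, cells were harvested and lysates run on SDS-PAGE, transferred to nitrocellulose and probed with antibodies. Remaining target (%) was computed from band grayscale relative to an internal control protein and normalised; degradation (%) was 100% minus that.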

Another assay deals with Jurkat. Briefly: CCK-8 proliferation, Jurkat. Type of assay: cell-based, Human. The note with it: Homo sapiens; Table B10, compounds designed based on the IRAK4 inhibitors; Jurkat cells; read-out: Inhibitory activity (IC50, nM) on tumor cell proliferation, Jurkat. A digest of the protocol: as §3
A further assay relates to MM.1S. Kind of assay: CCK-8 proliferation, MM.1S. The following applies: Homo sapiens, MM1.S; Table B10, compounds designed based on the IRAK4 inhibitors; MM.1S cells; read-out: Inhibitory activity (IC50, nM) on tumor cell proliferation, MM.1S. Type of assay: cell-based. Summed up: as §3
The next assay concerns MV-4-11. Kind of assay: CCK-8 proliferation, MV-4-11. Type of assay: cell-based, Human. The following applies: Homo sapiens, MV4-11; Table B10, compounds designed based on the IRAK4 inhibitors; MV-4-11 cells; read-out: Inhibitory activity (IC50, nM) on tumor cell proliferation, MV-4-11. A digest of the protocol:
as §3

For the next assay, the system named is SR. Briefly: CCK-8 proliferation, SR. It counts as cell-based, Human. The following applies: Homo sapiens; Table B10, compounds designed based on the IRAK4 inhibitors; SR cells; read-out: Inhibitory activity (IC50, nM) on tumor cell proliferation, SR. Summed up:
as §3

The next assay concerns LNcap. Kind of assay: CCK-8 proliferation, LNcap. It counts as cell-based. The following applies: Homo sapiens; Table B10, compounds designed based on the IRAK4 inhibitors; Lncap cells; read-out: Inhibitory activity (IC50, nM) on tumor cell proliferation, Lncap. The procedure:
as §1, §2

The next assay relates to H1299. Briefly: CCK-8 proliferation, H1299. The arrangement: species or system Human. The following applies: Homo sapiens, NCI-H1299; Table B10, compounds designed based on the IRAK4 inhibitors; H1299 cells; read-out: Inhibitory activity (IC50, nM) on tumor cell proliferation, H1299. Here is the method: as §1, §2
Another assay concerns the target T3, IRAK4 (Homo sapiens, UniProt Q9NWZ3).
T3 construct: evaluate the effects of the compounds of the present disclosure on the expression of target proteins in cells; endogenous in cells; host or cells: hPBMC
T3 sequence (Q9NWZ3 1-460): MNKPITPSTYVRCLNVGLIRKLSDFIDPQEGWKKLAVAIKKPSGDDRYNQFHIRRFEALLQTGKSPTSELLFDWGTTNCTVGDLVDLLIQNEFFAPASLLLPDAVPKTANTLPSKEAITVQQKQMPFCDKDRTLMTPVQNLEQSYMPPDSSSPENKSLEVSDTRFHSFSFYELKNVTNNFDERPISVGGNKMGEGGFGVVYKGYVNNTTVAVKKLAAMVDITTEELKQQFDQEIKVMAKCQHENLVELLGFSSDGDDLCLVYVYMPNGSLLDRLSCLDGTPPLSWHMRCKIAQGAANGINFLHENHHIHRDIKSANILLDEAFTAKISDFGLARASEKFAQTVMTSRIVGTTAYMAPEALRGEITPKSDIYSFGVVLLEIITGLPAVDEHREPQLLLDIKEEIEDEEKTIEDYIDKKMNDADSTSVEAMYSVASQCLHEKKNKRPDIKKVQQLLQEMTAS
Kind of assay: Western blot degradation of IRAK4 (hPBMC). It counts as cell-based. The note with it: Table D1. A digest of the protocol:
as §4
A general note: In western blotting, separated proteins are transferred to a membrane and probed.

The mark [2] stands for this setting: CCK-8, 72 hours, read-out: Inhibitory activity (IC50) on tumor cell proliferation, MGC80-3.
The mark [3] stands for this setting: CCRF-CEM, CCK-8, 96 hours, read-out: Inhibitory activity (IC50) on tumor cell proliferation, CCRF-CEM.
Where [4] appears, read: Table B10, compounds designed based on the IRAK4 inhibitors, MGC803 cells, read-out: Inhibitory activity (IC50, nM) on tumor cell proliferation, MGC803.

The structures appear in SMILES notation. Read-outs that look alike come from different tables or passages of the source.

T1 sequence (Q96SW2 whole entry): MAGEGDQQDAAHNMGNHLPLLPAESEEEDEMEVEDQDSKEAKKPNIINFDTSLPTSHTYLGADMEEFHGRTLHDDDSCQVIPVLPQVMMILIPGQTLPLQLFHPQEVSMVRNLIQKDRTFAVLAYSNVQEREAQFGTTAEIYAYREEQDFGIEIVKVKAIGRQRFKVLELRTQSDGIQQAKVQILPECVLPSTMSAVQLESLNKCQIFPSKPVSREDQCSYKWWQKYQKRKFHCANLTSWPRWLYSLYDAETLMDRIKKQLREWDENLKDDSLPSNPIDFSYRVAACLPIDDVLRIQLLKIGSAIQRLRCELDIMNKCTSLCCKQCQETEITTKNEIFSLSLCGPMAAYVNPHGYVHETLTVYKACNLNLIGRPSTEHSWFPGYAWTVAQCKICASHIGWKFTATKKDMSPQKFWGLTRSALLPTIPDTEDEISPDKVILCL
T2 sequence (Q05397 whole entry, species assumed): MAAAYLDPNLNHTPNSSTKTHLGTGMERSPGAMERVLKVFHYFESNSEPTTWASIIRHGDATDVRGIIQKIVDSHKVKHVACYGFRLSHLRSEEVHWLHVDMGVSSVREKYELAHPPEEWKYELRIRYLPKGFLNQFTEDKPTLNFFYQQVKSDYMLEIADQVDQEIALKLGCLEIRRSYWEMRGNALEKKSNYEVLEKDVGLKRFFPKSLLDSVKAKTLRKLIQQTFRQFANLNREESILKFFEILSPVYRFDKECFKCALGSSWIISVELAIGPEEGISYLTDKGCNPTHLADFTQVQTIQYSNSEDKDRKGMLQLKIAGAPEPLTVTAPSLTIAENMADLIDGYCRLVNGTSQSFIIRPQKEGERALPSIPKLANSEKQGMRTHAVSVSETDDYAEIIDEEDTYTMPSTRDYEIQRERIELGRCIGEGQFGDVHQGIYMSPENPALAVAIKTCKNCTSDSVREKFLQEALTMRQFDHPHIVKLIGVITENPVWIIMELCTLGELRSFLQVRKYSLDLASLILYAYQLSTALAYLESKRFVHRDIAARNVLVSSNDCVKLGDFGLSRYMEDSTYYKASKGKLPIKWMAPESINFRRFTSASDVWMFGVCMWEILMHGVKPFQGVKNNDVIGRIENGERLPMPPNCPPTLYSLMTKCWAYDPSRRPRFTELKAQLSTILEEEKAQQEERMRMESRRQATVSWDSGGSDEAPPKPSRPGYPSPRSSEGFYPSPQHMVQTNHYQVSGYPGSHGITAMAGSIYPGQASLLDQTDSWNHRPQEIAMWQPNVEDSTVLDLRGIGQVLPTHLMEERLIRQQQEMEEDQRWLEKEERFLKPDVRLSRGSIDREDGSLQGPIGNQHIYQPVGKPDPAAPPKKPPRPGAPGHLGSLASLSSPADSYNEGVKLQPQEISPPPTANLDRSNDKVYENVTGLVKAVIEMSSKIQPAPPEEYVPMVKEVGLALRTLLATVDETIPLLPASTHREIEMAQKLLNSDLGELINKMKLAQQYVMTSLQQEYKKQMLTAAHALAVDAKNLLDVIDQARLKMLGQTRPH

`Cc1ccc(-c2c(C)noc2C)cc1N(CC1CCN(Cc2ccc(C3CCC(=O)NC3=O)c(F)c2)CC1)c1ccc(C2(C#N)CC2)cc1` (centres unmarked) [GT-04840, 1-(4-((5-(3,5-dimethylisoxazol-4-yl)-2-methylphenyl)((1-(4-(2,6-dioxopiperidin-3-yl)-3-fluorobenzyl)piperidin-4-yl)methyl)amino)phenyl)cyclopropane-1-carbonitrile]: the IC50 in the assay with BXPC-3 lay within 10 to 50 nM; in the assay on MGC-803 (setting [2]), 100 to 500 nM; with SW620 it was 100 to 500 nM.
In the case of `Cc1ccc(-c2c(C)noc2C)cc1N(CC1CCN(Cc2cccc(N3CCC(=O)NC3=O)c2)CC1)c1ccc(C2(C#N)CC2)cc1` [GT-04842, 1-(4-((5-(3,5-dimethylisoxazol-4-yl)-2-methylphenyl)((1-(3-(2,4-dioxotetrahydropyrimidin-1(2H)-yl)benzyl)piperidin-4-yl)methyl)amino)phenyl)cyclopropane-1-carbonitrile], the IC50 in the assay with THP-1 and in the assay on BXPC-3 was 500 to 1000 nM throughout.
As usually defined, the inhibition is the relative decrease from the control value, in per cent. For `CNC(=O)c1ccccc1Nc1cc(Nc2cc(C)c(N3CCC(N(C)Cc4ccc(C5CCC(=O)NC5=O)cc4)CC3)cc2OC(C)C)ncc1C(F)(F)F` (centres unmarked) [GT-04094, 2-((2-((4-(4-((4-(2,6-dioxopiperidin-3-yl)benzyl)(methyl)amino)piperidin-1-yl)-2-isopropoxy-5-methylphenyl)amino)-5-(trifluoromethyl)pyridin-4-yl)amino)-N-methylbenzamide], the IC50 fell in the range of 500 to 1000 nM with CAL-62, 500 to 1000 nM in the assay with CCRF-CEM (setting [3]) and 100 to 500 nM with SW620. Also, in assay [1] (Table II-2, CRBN binding screening, at 0.5µM, read-out: Inhibition rate (%) at 0.5µM), the inhibition at 0.5 µM is 10 to 20%. For the same compound, the inhibition at 2 µM in [1] (Table II-2, CRBN binding screening, at 2 µM, read-out: Inhibition rate (%) at 2 µM) lay within 53 to 60%. For the same compound, the “Degradation of substrate protein FAK (substrate protein remaining %)” value at FAK is “A (A is defined as 0% ≤ substrate protein remaining % ≤ 80%)”.
For the compound `CC[C@@H]1[C@H](F)C(=O)N[C@@H]1COc1nccc2cc(C(N)=O)c(OC)cc12` [PF06650833, reference compound], the IC50 was more than 10000 nM with Jurkat; more than 10000 nM with MM.1S; 1000 to 5000 nM in the assay with MV-4-11; more than 10000 nM in assay [1] (Table II-1, CRBN binding); 5000 to 10000 nM with CCRF-CEM (Table B10, compounds designed based on the IRAK4 inhibitors, CCRF-CEM cells, read-out: Inhibitory activity (IC50, nM) on tumor cell proliferation, CCRF-CEM); 5000 to 10000 nM with MGC-803 (setting [4]). Moreover, the IC50 in the assay on SR is 1000 to 5000 nM; in the assay on LNcap, more than 10000 nM; in the assay with H1299 it was 5000 to 10000 nM.
As for `Cc1ccc(-c2c(C)noc2C)cc1N(CC1CCN(Cc2cccc(NC3CCC(=O)NC3=O)c2)CC1)c1ccc(C2(C#N)CC2)cc1` (centres unmarked) [GT-04841, 1-(4-((5-(3,5-dimethylisoxazol-4-yl)-2-methylphenyl)((1-(3-((2,6-dioxopiperidin-3-yl)amino)benzyl)piperidin-4-yl)methyl)amino)phenyl)cyclopropane-1-carbonitrile], the IC50 in the assay with THP-1 fell in the range of 500 to 1000 nM; in the assay with BXPC-3 it was 100 to 500 nM.
On to `O=C1CCC(c2ccc(CN3CCN(c4ccc(-n5cc(NC(=O)c6coc(-c7ccnc(NCC(F)(F)F)c7)n6)c(C(F)F)n5)cc4)CC3)cc2)C(=O)N1` (centres unmarked) [GT-04273, N-(3-(difluoromethyl)-1-(4-(4-(4-(2,6-dioxopiperidin-3-yl)benzyl)piperazin-1-yl)phenyl)-1H-pyrazol-4-yl)-2-(2-((2,2,2-trifluoroethyl)amino)pyridin-4-yl)oxazole-4-carboxamide], for which the IC50 was in the range of 1 to 10 nM in the assay with Jurkat; 1 to 10 nM in the assay on MM.1S; 10 to 50 nM in the assay with MGC-803 (setting [4]); 50 to 100 nM in the assay on SR; 100 to 500 nM in the assay on LNcap; 50 to 100 nM in the assay with H1299.
With `Cc1ccc(-c2c(C)noc2C)cc1N(CC1CCN(Cc2ccc(C3CCC(=O)NC3=O)cc2)CC1)c1ccc(C2(C#N)CC2)cc1` (centres unmarked) [GT-04839, 1-(4-((5-(3,5-dimethylisoxazol-4-yl)-2-methylphenyl)((1-(4-(2,6-dioxopiperidin-3-yl)benzyl)piperidin-4-yl)methyl)amino)phenyl)cyclopropane-1-carbonitrile], the IC50 in the assay with CCRF-CEM (setting [3]) fell in the range of 500 to 1000 nM; in the assay on BXPC-3, 50 to 100 nM; in the assay with MGC-803 (setting [2]) it was 500 to 1000 nM; with SW620, 500 to 1000 nM.
As for `O=C1CCC(Nc2cccc(CN3CCN(c4ccc(-n5cc(NC(=O)c6coc(-c7ccnc(NCC8CC8)c7)n6)c(C(F)F)n5)cc4)CC3)c2)C(=O)N1` (centres unmarked) [GT-04969, 2-(2-((cyclopropylmethyl)amino)pyridin-4-yl)-N-(3-(difluoromethyl)-1-(4-(4-(3-((2,6-dioxopiperidin-3-yl)amino)benzyl)piperazin-1-yl)phenyl)-1H-pyrazol-4-yl)oxazole-4-carboxamide], the IC50 with Jurkat, with MM.1S, with MGC-803 (setting [4]), in the assay on SR and in the assay on H1299 was 100 to 500 nM each time. Moreover, the “Degradation of substrate protein IRAK4 (substrate protein remaining %)” value on IRAK4 is reported as “A (A is defined as 0% ≤ substrate protein remaining % ≤ 80%)”.
